Data as given in patent US10799473B2, “Methods of inhibiting IGF-1R activation or downtream signalling thereof to reduce radiation-induced cellular senescence” (The Henry M. Jackson Foundation for the Advancement of …, priority 2013, dated 2020).
“Also recorded” adds a separate entry of the source.

Key:
[1] = test system: Human pulmonary artery endothelial cells (HPAEC); test: Senescence-associated β-galactosidase (SA-β-gal) assay in X-ray irradiated HPAEC; format: cell-based; settings: HPAEC pretreated 30 minutes with inhibitor (AG1024 5 μM, Ly294002 20 μM, rapamycin 500 nM, U0126 10 μM), 10 Gy X-rays, 4 days post-irradiation
Description: Cell Culture and Reagents. Human pulmonary artery endothelial cells (HPAEC) were obtained from Cell Applications, Inc. (San Diego, Calif.) and cultured in EBM-2 basal medium containing supplements and growth factors as indicated in the manufacturer's protocol (Lonza, Walkersville, Md.). Cells were maintained at 37° C. in a humidified atmosphere containing 5% CO2. Subconfluent HPAEC at passages 4-8 were used for all experiments. The following chemical inhibitors and their final concentrations were used: […] 20 mM N-acetyl cysteine (NAC) was dissolved in distilled H2O. Cell Irradiation: HPAEC were either irradiated or sham-irradiated at subconfluence (70-90%). Irradiations were conducted using RS2000 Biological Irradiator (Rad Source Technologies, Alpharetta, Ga.) with 0 3 mm Cu shielding at a dose rate of 2.4 Gy/min (160 kV, 25 mA) at room temperature. Senescence-associated fl-galactosidase (SA-β-gal) Assay. SA-β-gal assay was performed according to established protocols with minor modifications (Dimri, Lee et al. 1995; Bandyopadhyay, Gatza et al. 2005). To avoid density-dependent false positive expression of SA-β-gal, HPAEC were seeded at a density of 1.0-2.0×10^4 on 12-well or 6-well dishes and allowed to reach 50-70% confluence prior to treatment. At indicated time-points postirradiation, cells were washed twice in ice cold PBS, fixed in 2% formaldehyde/0.2% glutaraldehyde in PBS for 5 min at room temperature and washed again twice in ice-cold PBS. 1.5-2 ml of freshly prepared X-gal staining solution (1 mg/ml of 5-bromo-4-chloro-3-indolyl β-D-galactoside in 40 mM citric acid/sodium phosphate, pH 6.0 (made by mixing 36.85 parts 0.1 M citric acid solution with 63.15 parts 0.2 M sodium phosphate solution and then verifying pH to be 6.0, 0.1M citric acid was added to adjust pH when necessary), 5 mM potassium ferrocyanide, 5 mM potassium ferricyanide, 150 mM NaCl, 2 mM MgCl2) was then added to the culture dishes and the dishes were incubated for 12-20 h at 37° C. (without CO2). After incubation, cells were washed twice in ice-cold PBS and once in methanol and allowed to dry. Cells were examined for perinuclear blue staining indicative of SA-β-gal activity in at least 3 random fields.

[2] = test system: p53 and p21/wafl; test: Western blotting for p53 and p21/wafl expression in irradiated HPAEC; format: cell-based, human; settings: western blot
Description: (§1) Cell Culture and Reagents. Human pulmonary artery endothelial cells (HPAEC) were obtained from Cell Applications, Inc. (San Diego, Calif.) and cultured in EBM-2 basal medium containing supplements and growth factors as indicated in the manufacturer's protocol (Lonza, Walkersville, Md.). Cells were maintained at 37° C. in a humidified atmosphere containing 5% CO2. Subconfluent HPAEC at passages 4-8 were used for all experiments. The following chemical inhibitors and their final concentrations were used: AG1024 (5 μM, EMD Millipore, Billerica, Mass.), U0126 (10 μM), Ly294002 (20 μM), rapamycin (500 nM). […] 20 mM N-acetyl cysteine (NAC) was dissolved in distilled H2O.
(§2) Cell Irradiation: HPAEC were either irradiated or sham-irradiated at subconfluence (70-90%). Irradiations were conducted using RS2000 Biological Irradiator (Rad Source Technologies, Alpharetta, Ga.) with 0 3 mm Cu shielding at a dose rate of 2.4 Gy/min (160 kV, 25 mA) at room temperature.
(§3) Western blotting. […]
(§4) Protein concentrations from whole cell lysates were determined using Protein® BCA Protein Assay Kit (Thermo Scientific, Rockford, Ill.). […] Proteins were detected with horseradish peroxidase-linked secondary antibodies and SuperSignal® West Pico Chemiluminescent Substrate (Pierce, Rockford, Ill.). […]

[3] = test system: Human pulmonary artery endothelial cells (HPAEC); test: Cell morphology / cellular volume of X-ray irradiated HPAEC; format: cell-based; settings: inhibitor pretreatment (AG1024 5 μM, Ly294002 20 μM, rapamycin 500 nM), 10 Gy X-rays, within 96 h
Description: as §1, §2
Senescence-associated fl-galactosidase (SA-β-gal) Assay. SA-β-gal assay was performed according to established protocols with minor modifications (Dimri, Lee et al. 1995; Bandyopadhyay, Gatza et al. 2005). To avoid density-dependent false positive expression of SA-β-gal, HPAEC were seeded at a density of 1.0-2.0×10^4 on 12-well or 6-well dishes and allowed to reach 50-70% confluence prior to treatment. […]

[4] = test system: caspase-3; test: Western blotting for cleaved caspase-3 in irradiated HPAEC (radiation-induced apoptosis); format: cell-based, human; settings: 6 hours post-irradiation
Description: as §1, §2, §3, §4

[5] = test system: Akt S473; test: Western blotting for phosphorylated Akt (S473) in irradiated HPAEC; format: cell-based, human; settings: 5 μM AG1024, 10 Gy X-rays, 3 hours post-irradiation
Description: as §1, §2, §3, §4

[6] = test system: IGF-1R; test: Western blotting for IGF-1R phosphorylation in H2O2-treated HPAEC; format: cell-based, human
Description: as §1, §3, §4
(§5) Radiation-induced reactive oxygen species (ROS) are required for early IGF-1R phosphorylation. […] We then determined whether this ROS-induced phosphorylation is ligand-dependent by treating the cells with H2O2 in the presence of AG1024 and blotting for phosphorylated IGF-1R. […]

[7] = test system: S6 ribosomal protein (Ser 235/236); test: Western blotting for phosphorylated S6 ribosomal protein (Ser 235/236) in irradiated HPAEC; format: cell-based, human; settings: 5 μM AG1024, 10 Gy X-rays, 72 hours post-irradiation
Description: as §1, §2, §3, §4

[8] = test system: IGF-1R; test: Western blotting for IGF-1R phosphorylation in X-ray irradiated HPAEC; format: cell-based, human; settings: 20 mM NAC 1 hour, 10 Gy X-rays, 3 hours post-irradiation
Description: as §1
Cell Irradiation: HPAEC were either irradiated or sham-irradiated at subconfluence (70-90%). […]
as §4, §5

`N#CC(=C(/N)Sc1ccccc1N)/C(C#N)=C(\N)Sc1ccccc1N` [U0126] was tested, and the “radiation-induced accelerated senescence (SA-β-gal activity, percentage of SA-β-gal positive cells)” value [1] was “did not rescue cells from undergoing accelerated senescence”.

For `O=c1cc(N2CCOCC2)oc2c(-c3ccccc3)cccc12` [LY294002, 2-(4-Morpholinyl)-8-phenyl-4H-chromen-4-one], the “radiation-induced p21/wafl expression” value ([2]; 500 nM rapamycin or 20 μM Ly294002, 10 Gy X-rays) was “attenuated”, the “cellular morphology / change in cellular volume after radiation exposure” value [3] was “maintenance of normal cellular morphology” and the “radiation-induced accelerated senescence (SA-β-gal activity, percentage of SA-β-gal positive cells)” value [1] was “attenuated”. The “radiation-induced accelerated senescence (SA-β-gal activity, percentage of SA-β-gal positive cells)” value ([1]; listed as Ly294002) was “Attenuation”.

With “IGF-1: exogenous IGF-1 (IGF-1R activator), activating ligand of IGF-1R” the “levels of active (cleaved) caspase-3, radiation-induced apoptosis” value ([4]; exogenous IGF-1 50 ng/ml 18 hours, X-rays (10 Gy in legend, 50 Gy in text)) was “does not regulate; also recorded: did not alter”.

In the case of `CC(C)(C)c1cc(C=C(C#N)C#N)cc(Br)c1O` [AG1024], the “radiation-induced phosphorylation of Akt S473” value [5] is reported as “had no effect”, the “radiation-induced p53 and p21/wafl expression” value ([2]; 5 μM AG1024, 10 Gy X-rays) is reported as “suppression” and the “cellular morphology / change in cellular volume after radiation exposure” value [3] is reported as “prevented the change in cellular volume”. The “radiation-induced accelerated senescence (SA-β-gal activity, percentage of SA-β-gal positive cells)” value [1] was “Attenuation; also recorded: significantly reduced cellular senescence”, the “ROS (H2O2)-induced IGF-1R phosphorylation in presence of inhibitor” value ([6]; 5 μM AG1024 30 minutes, then 10 μM H2O2 20 minutes) was “not inhibited” and the “phosphorylation of S6 ribosomal protein (Ser 235/236)” value [7] was “significantly reduced”. The “levels of active (cleaved) caspase-3, radiation-induced apoptosis” value ([4]; 5 μM AG1024 30 minutes, 50 Gy X-rays) was “does not regulate; also recorded: did not alter”.

`CC(=O)N[C@@H](CS)C(=O)O` [NAC, N-acetyl-L-cysteine] was tested, and the “IR-induced IGF-1R phosphorylation” value [8] was “attenuated”.

For `OO` [H2O2], the “IGF-1R phosphorylation induced by H2O2 alone” value ([6]; H2O2 1 μM and 10 μM, 20 minutes) was “sufficient to induce IGF-1R phosphorylation”.
